Data reported in BindingDB's records for doi:10.7270/Q2N014XN (Srmlsc, 2007).
Where a name gives a salt, the structure may show the parent alone.

What follows are molecules tested against T1, Diphosphomevalonate decarboxylase (Streptococcus pneumoniae serotype 2 (strain D39 / NCTC 7466), UniProt A0A0H2ZN59) (assay: diphosphomevalonate decarboxylase inhibition dose curves – biochemical, PK/LDH-coupled NADH fluorescence, hexokinase coupling counter-screen, dose response (AID 550)). Details: not given.
T1 sequence (A0A0H2ZN59 whole entry): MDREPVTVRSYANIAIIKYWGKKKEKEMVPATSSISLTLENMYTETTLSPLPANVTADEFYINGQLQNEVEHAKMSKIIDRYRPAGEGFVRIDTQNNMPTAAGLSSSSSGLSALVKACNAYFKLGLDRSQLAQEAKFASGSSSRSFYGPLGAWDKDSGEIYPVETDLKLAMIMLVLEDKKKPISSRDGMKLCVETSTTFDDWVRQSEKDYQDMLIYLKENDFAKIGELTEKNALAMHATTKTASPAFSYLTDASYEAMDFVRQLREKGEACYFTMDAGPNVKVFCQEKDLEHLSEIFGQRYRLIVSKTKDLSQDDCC

SMILES | IC50
Cc1occc1C(=O)Nc1nnc(C(F)(F)F)s1 [2-methyl-N-[5-(trifluoromethyl)-1,3,4-thiadiazol-2-yl]-3-furamide] | > 10000 µM
CC(C)(C)CC(=O)Nc1nnc(-c2cccs2)s1 [3,3-Dimethyl-N-(5-thiophen-2-yl-[1,3,4]thiadiazol-2-yl)-butyramide] | > 10000 µM
CC(C)c1nc(NCC2CCCO2)c(C#N)c2c1COC(C)(C)C2 (centres undefined) [3,3-dimethyl-6-(2-oxolanylmethylamino)-8-propan-2-yl-1,4-dihydropyrano[3,4-c]pyridine-5-carbonitrile] | 9.97 µM
Cc1ccc(S(=O)(=O)NCCN2CCOCC2)cc1C [3,4-Dimethyl-N-(2-morpholin-4-yl-ethyl)-benzenesulfonamide] | > 10000 µM
COc1ccc(C(=O)NCc2cn3c(C)csc3n2)cc1OC [3,4-dimethoxy-N-[(3-methyl-6-imidazo[2,1-b]thiazolyl)methyl]benzamide] | > 10000 µM
N#Cc1c(NCCO)nc(NCc2ccccc2)c2c1CCN(Cc1ccccc1)C2 [3-(2-hydroxyethylamino)-7-(phenylmethyl)-1-[(phenylmethyl)amino]-6,8-dihydro-5H-2,7-naphthyridine-4-carbonitrile] | 38.6 µM
COc1ccc(-c2coc3cc(O)ccc3c2=O)cc1OC [3-(3,4-dimethoxyphenyl)-7-hydroxy-1-benzopyran-4-one] | 19 µM
Clc1c(-c2nnc3n2CCC3)sc2ccccc12 [3-(3-chloranyl-1-benzothiophen-2-yl)-6,7-dihydro-5H-pyrrolo[2,1-c][1,2,4]triazole] | > 10000 µM
COc1ccc(-n2nc(C(=O)NCc3ccco3)c3c4ccccc4n(C)c3c2=O)cc1Cl [3-(3-chloranyl-4-methoxy-phenyl)-N-(furan-2-ylmethyl)-5-methyl-4-oxidanylidene-pyridazino[4,5-b]indole-1-carboxamide] | 15.1 µM
N#Cc1c(NCCCO)nc(NCc2ccccc2)c2c1CCN(Cc1ccccc1)C2 [3-(3-hydroxypropylamino)-7-(phenylmethyl)-1-[(phenylmethyl)amino]-6,8-dihydro-5H-2,7-naphthyridine-4-carbonitrile] | 39.1 µM
O=C(Nc1ccc(F)cc1)N(CCCN1CCOCC1)Cc1cc2cc3c(cc2[nH]c1=O)OCO3 [3-(4-fluorophenyl)-1-[3-(4-morpholinyl)propyl]-1-[(6-oxo-5H-[1,3]dioxolo[4,5-g]quinolin-7-yl)methyl]urea] | 17.6 µM
Cc1ccc(NC(=O)N(CCCN2CCOCC2)Cc2cc3cc4c(cc3[nH]c2=O)OCO4)cc1 [3-(4-methylphenyl)-1-(3-morpholin-4-ylpropyl)-1-[(6-oxidanylidene-5H-[1,3]dioxolo[4,5-g]quinolin-7-yl)methyl]urea] | 45.6 µM
O=C(O)CCn1nnc(-c2cccs2)n1 [3-(5-Thiophen-2-yl-tetrazol-2-yl)-propionic acid] | > 10000 µM
Nc1c(C(=O)NC2CCCC2)sc2nc(-c3cccs3)ccc12 [3-Amino-6-thiophen-2-yl-thieno[2,3-b]pyridine-2-carboxylic acid cyclopentylamide] | 172 µM
Cc1c(C(=O)OCC(C)(C)CN(C)C)oc2ccccc12 [3-Methyl-benzofuran-2-carboxylic acid 3-dimethylamino-2,2-dimethyl-propyl ester] | > 10000 µM
COc1ccc(-c2cc(C(F)(F)F)nc(SCCC(=O)Nc3cc(C)on3)n2)cc1 [3-[4-(4-Methoxy-phenyl)-6-trifluoromethyl-pyrimidin-2-ylsulfanyl]-N-(5-methyl-isoxazol-3-yl)-propionamide] | > 10000 µM
CCOc1nc(-c2ccccc2)ccc1-c1noc(-c2ccc(OC)c(OC)c2)n1 [3-[5-(3,4-Dimethoxy-phenyl)-[1,2,4]oxadiazol-3-yl]-2-ethoxy-6-phenyl-pyridine] | > 10000 µM

SMILES | IC50
CN(C)Cc1nc2ccccc2c(=O)n1Cc1nc(-c2cc3ccccc3o2)cs1 [3-[[4-(1-benzofuran-2-yl)-1,3-thiazol-2-yl]methyl]-2-[(dimethylamino)methyl]quinazolin-4-one] | > 10000 µM
COc1ccc(-c2c3c(nc4sc(C(=O)Nc5cc(C)on5)c(N)c24)CCC3)cc1 [3-amino-4-(4-methoxyphenyl)-N-(5-methyl-3-isoxazolyl)-6,7-dihydro-5H-cyclopenta[b]thieno[3,2-e]pyridine-2-carboxamide] | 8.33 µM
COC(=O)c1sc2nc(-c3ccco3)ccc2c1N [3-amino-6-(2-furanyl)-2-thieno[2,3-b]pyridinecarboxylic acid methyl ester] | 28.7 µM
O=C(NC1CCCCC1)N(CCN1CCCC1)Cc1cc2cc3c(cc2[nH]c1=O)OCCO3 [3-cyclohexyl-1-[(7-oxo-3,6-dihydro-2H-[1,4]dioxino[2,3-g]quinolin-8-yl)methyl]-1-[2-(1-pyrrolidinyl)ethyl]urea] | 15 µM
CCOC(=O)CC(=O)CSc1ccc2nnc(-c3ccc(C)cc3)n2n1 [3-keto-4-[[3-(p-tolyl)-[1,2,4]triazolo[4,3-b]pyridazin-6-yl]thio]butyric acid ethyl ester] | 287 µM
COc1cccc(C(=O)Nc2ccc(NC(=O)C(C)C)nc2)c1 [3-methoxy-N-[6-(2-methylpropanoylamino)pyridin-3-yl]benzamide] | > 10000 µM
Cc1c(C(=O)NCC2CCCO2)sc2nc(-c3ccccc3)cn12 (centres undefined) [3-methyl-6-phenyl-N-(tetrahydrofurfuryl)imidazo[2,1-b]thiazole-2-carboxamide] | > 10000 µM
Cc1c(C(=O)NCc2ccc3c(c2)OCO3)sc2nc(-c3ccccc3)cn12 [3-methyl-6-phenyl-N-piperonyl-imidazo[2,1-b]thiazole-2-carboxamide] | > 10000 µM
CC(C)CC(=O)NCC(C)NC(=O)CC(C)C (centres undefined) [3-methyl-N-[2-(3-methylbutanoylamino)propyl]butanamide] | > 10000 µM
Cc1ccccc1Cc1c(C)nc2c(C(=O)N3CCN(Cc4ccc5c(c4)OCO5)CC3)cnn2c1C [3-{[4-(1,3-benzodioxol-5-ylmethyl)piperazin-1-yl]carbonyl}-5,7-dimethyl-6-(2-methylbenzyl)pyrazolo[1,5-a]pyrimidine] | > 10000 µM
COc1cc(NC(=O)c2cccs2)c(C(=O)OCC(=O)NCc2ccco2)cc1OC [4,5-dimethoxy-2-(2-thenoylamino)benzoic acid [2-(2-furfurylamino)-2-keto-ethyl] ester] | > 10000 µM
COC(=O)c1cc(OC)c(OC)cc1NC(=O)c1oc2ccccc2c1C [4,5-dimethoxy-2-[(3-methylbenzofuran-2-carbonyl)amino]benzoic acid methyl ester] | > 10000 µM
Cc1cnc(SCCc2ccncc2)nc1C [4,5-dimethyl-2-(2-pyridin-4-ylethylsulfanyl)pyrimidine;hydrochloride] | > 10000 µM
CCOC(=O)c1c(Nc2nc(C)c(C(=O)NC)s2)sc(C)c1C [4,5-dimethyl-2-[[4-methyl-5-(methylcarbamoyl)-2-thiazolyl]amino]-3-thiophenecarboxylic acid ethyl ester] | > 10000 µM
COc1ccccc1NC(=O)C1=C(C)N=C2CCCC(=O)C2C1c1ccc2c(c1)OCO2 (centres undefined) [4-(1,3-benzodioxol-5-yl)-N-(2-methoxyphenyl)-2-methyl-5-oxo-4,6,7,8-tetrahydro-1H-quinoline-3-carboxamide] | 76.3 µM
Cc1noc(C)c1CSc1nc2ccccc2s1 [4-(1,3-benzothiazol-2-ylsulfanylmethyl)-3,5-dimethyl-1,2-oxazole] | > 10000 µM

Same assay, conditions: inactive by the depositor's call

SMILES | IC50
Nc1cc(C(=O)O)ccc1Nc1ccccc1 [3-amino-4-anilino-benzoic acid] | 120 µM
